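Cells were grown in 96-well plates and exposed to each compound for 48 hours at five concentrations; endpoints were interpolated linearly between bracketing concentrations, or set to the highest concentration if not reached. GI50 marks 50% less growth. TGI: total growth inhibition.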
Tests used:
Assay in all cases: DTP human tumour cell line panel, 48 h
MOLT-4 leukemia = system: MOLT-4 leukemia
UACC-62 melanoma = system: UACC-62 melanoma
ACHN renal = system: ACHN renal
OVCAR-8 ovarian = system: OVCAR-8 ovarian
SR leukemia = system: SR leukemia
OVCAR-3 ovarian = system: OVCAR-3 ovarian
HS 578T breast = system: HS 578T breast
EKVX NSCLC = system: EKVX NSCLC

Structure (SMILES)	TGI (MOLT-4 leukemia) [µM]	TGI (UACC-62 melanoma) [µM]	TGI (ACHN renal) [µM]	TGI (OVCAR-8 ovarian) [µM]	TGI (SR leukemia) [µM]	TGI (OVCAR-3 ovarian) [µM]	TGI (HS 578T breast) [µM]	TGI (EKVX NSCLC) [µM]	GI50 (UACC-62 melanoma) [µM]	GI50 (HS 578T breast) [µM]	GI50 (ACHN renal) [µM]	GI50 (OVCAR-8 ovarian) [µM]	GI50 (EKVX NSCLC) [µM]	GI50 (OVCAR-3 ovarian) [µM]
CCCN=C1NC(C)=CSC(Nc2ccccc2)=C1C#N	> 100	> 100	> 100	> 100	> 100	> 100								
Cc1ccc(C)n1-c1ccccc1C1C=Cn2c(=O)oc3c(OC(C)C)c(OC(C)C)c(O)c1c32 (configuration not stated)	> 100	> 100	> 100	> 100		> 100	> 100	> 100						
OCc1ccc2c(c1)CC1(Cc3ccccc3C1)C2		60.2	57.7	> 100	> 100	68.5	32.9	80.2						
CSc1nnnc2ccccc12	> 100	> 100	> 100	> 100		> 100	> 100	> 100						
NS(=O)(=O)c1ccc(-c2ccc([As](=O)(O)O)cc2)cc1	> 100	> 100	> 100	> 100	> 100	> 100	> 100	> 100						
CCOc1ccc2c(c1)C(/C(C(Cl)=C(Cl)Cl)=[N+](/[O-])OC(=O)c1ccccc1)=N2	> 100	> 100	> 100	> 100	> 100	> 100	> 100	> 100						
[N-]=[N+]=Nc1cc(=O)[nH]c2ccccc12	> 100	> 100	> 100	> 100	> 100	> 100	> 100	42.5						
CCOC(=O)Cc1[nH]c(C(=O)c2ccccc2)cc1C(=O)c1ccccc1	85.7	> 100	> 10	> 10	> 100	> 100	> 100	> 100						
O=C(CC(=O)N1N=C(c2ccccc2)C(N=Nc2ccc(S(=O)(=O)CCOS(=O)(=O)O)cc2)C1=O)Nc1ccc(Cl)cc1 (configuration not stated)	> 100	> 100	> 100	> 100	> 100	> 100	99.6	> 100						
N#Cc1c(/C=C/c2ccccc2)c2c([nH]c1=S)CCCCC2	> 100		> 100	> 100	> 100	> 100	> 100	> 100						
Cc1nc(N)c(N2CCN(S(=O)(=O)N(Cc3ccccc3)Cc3ccccc3)CC2)c(=O)[nH]1	> 100		85.1	> 100	> 100	73.8	69.8	> 100						
NS(=O)(=O)c1nnc(NS(=O)(=O)c2cccc3cccnc23)s1	> 100	> 100	> 100	> 100	> 100	> 100	> 100	> 100						
COc1cc2c3c(n(C)c(=O)c2cc1OC)-c1cc2c(cc1/C3=C\CCCCl)OCO2	43.2	> 100	> 100	> 100			> 100	> 100	33.3					
N#Cc1sc2c(c1OC(=O)c1ccco1)c(=O)n(-c1ccccc1)c(=S)n2-c1ccccc1	43.4	34.1		> 100	> 10	75.5	> 100	> 100						
O=S(=O)(O)c1ccc(O)c(N=Nc2c(O)ccc3ccccc23)c1	> 100	> 100		> 100		> 100	> 100	> 100						
CCOP(=O)(OCC)C(Nc1ccc(Cl)cc1)c1ccc(F)cc1 (configuration not stated)	61.7	29.3	97.2	> 100	> 100	> 100	54.4	> 100						
Cc1ccc2sc3c(NCCCN)nc4ccccc4c3c(=O)c2c1		3.24	3.09	5.91		3.32	5.19	4.09	1.74	2.05	1.71	2.41	1.89	1.82
Cc1cc2nc3c(C#N)c(C)c(CCCl)c(Cl)n3c2cc1C	6.95	4.12	11.1	7.55	5.81	3.56	> 29.6	35.6						
COC1(OC)CC(CO)(COc2cc(Cl)nc(N)n2)C1	> 100	> 100	> 100	> 100		> 100	> 100	> 100						
O=C(CSc1nc2ccc(I)cc2c(=O)n1Cc1ccccc1)Nc1ccccc1	> 100	> 100	> 100	30	33.3	40.4	17	11.6						
Cc1ccc(/C=c2\c(=O)[nH]c3nc4ccccc4c(=O)n23)cc1	> 100	> 100	> 100	> 100		> 100	> 100							
C=C1c2c(n(S(=O)(=O)c3ccccc3)c3ccccc23)[C@@]2(C(=O)OC)CC3C=CC2N1C3	> 100	> 100	> 100	> 100		> 100		> 100						
Cc1cc(N(CCC#N)CCC#N)ccc1/C(N=Nc1ccc(C(=O)O)cc1)=N\NC(=O)c1ccccc1	> 100	> 100	> 100	> 100	> 100		55.5	> 100						
O=c1c(O)c(-c2ccccc2)oc2c(CP(=O)(O)O)cccc12	> 100	> 100			> 100	> 100		> 100						
O=[N+]([O-])c1c(O)c2nonc2c2nn(-c3ccccc3)nc12	> 100	> 100	> 100	> 100	> 100	> 100	> 100	> 100						
COC(=O)NC(Cc1ccccc1)NC(=O)OC(C)(C)C (configuration not stated)	> 100	> 100	> 100	> 100	> 100	> 100	> 100	> 100						

— PubChem BioAssay (NCI)
